One series concerns Alternaria solani. In words: Antifungal activity against Alternaria solani on tomato plants (percent control relative to untreated plants). The series is classed as in vivo.
For a further series, the system named is Botrytis cinerea. The experiment in a line: Antifungal activity against Botrytis cinerea on plants (percent control relative to untreated plants). The conditions noted are these: Example 3; stored at 54° C. for two weeks or at 40° C. for eight weeks.
Series [1] in a line: Relative fusaricidin A levels in stored formulations by HPLC/MS TOF. The conditions noted are these: Example 4; 54° C. for two weeks or 40° C. for eight weeks; FIGS. 3 and 4.
Where [2] appears, read: Example 3, stored at 54° C. for two weeks or at 40° C. for eight weeks.
Where [3] appears, read: across the three assays of Tables 2-4, agent at 2% in 60:40 (BC:water) dilution.
The mark [4] stands for this setting: agent at 2% in 70:30 (BC:water) dilution, after storage at 54° C. for two weeks.

Results on seven compounds are retold here after patent US20210204550A1, “STABILIZED FUNGICIDAL COMPOSITION” (priority 2018, published 2021).

Structures can show the parent of a compound that is named as a salt.

In the case of `C[N+](C)(C)CC(=O)O` [betaine hydrochloride], the “effect of stabilizing agent on antifungal activity of Paenibacillus sp. strain NRRL B-50972 BC” value with Alternaria solani (setting [2]) and in the series on Botrytis cinerea was “robust effect in stabilizing the antifungal activity” in each case. Turning to `NC(N)=O` [urea, carbonic diamide (CO(NH2)2)], the “effect of stabilizing agent on antifungal activity of Paenibacillus sp. strain NRRL B-50972 BC” value is listed as “robust effect in stabilizing the antifungal activity” in the series with Alternaria solani (setting [2]), “preserved the antifungal activity” in the series with Alternaria solani (setting [3]) and “robust effect in stabilizing the antifungal activity” in the series with Botrytis cinerea. For the compound `O=C([O-])CC(O)(CC(=O)[O-])C(=O)[O-].[K+].[K+].[K+]` [Potassium citrate (tribasic), potassium citrate (tribasic)], the “effect of stabilizing agent on antifungal activity of Paenibacillus sp. strain NRRL B-50972 BC” value in the series with Alternaria solani (setting [4]) is recorded as “demonstrated a stabilizing effect”.

For `N=C(N)N` [guanidine hydrochloride], the “effect of stabilizing agent on antifungal activity of Paenibacillus sp. strain NRRL B-50972 BC” value in the series with Alternaria solani (setting [3]) is “preserved the antifungal activity”. Turning to `O=P([O-])(O)O.[K+]` [potassium phosphate (monobasic)], the “effect of stabilizing agent on antifungal activity of Paenibacillus sp. strain NRRL B-50972 BC” value with Alternaria solani (setting [4]) is “did not”.

Regarding glycerol ethyl oxylate, the “effect of stabilizing agent on antifungal activity of Paenibacillus sp. strain NRRL B-50972 BC” value with Alternaria solani (setting [3]) is reported as “had little effect”. With `O=P([O-])([O-])O.[K+].[K+]` [potassium phosphate (dibasic)], in series [1], the “effect of stabilizing agent on fusaricidin A in Paenibacillus sp. strain NRRL B-50972 BC” value is recorded as “had less of an effect in stabilizing fusaricidin A”. The “effect of stabilizing agent on antifungal activity of Paenibacillus sp. strain NRRL B-50972 BC” value was “less than that of urea and betaine hydrochloride” in the series with Alternaria solani (setting [2]); “stabilized the antifungal activity” with Alternaria solani (setting [4]); “less than that of urea and betaine hydrochloride” with Botrytis cinerea.
